This passage reports IC50 results from ChEMBL document CHEMBL1142484, “Design and synthesis of sulfoximine based inhibitors for HIV-1 protease” (Bioorg Med Chem Lett, 2008).

The term IC50 denotes the midpoint of a concentration-inhibition curve. High values mean weaker potency, low ones greater potency.

In this experiment the target is Protease (Human immunodeficiency virus 1, UniProt Q9YQ12). The experiment can be described thus: Inhibition of HIV1 protease.
Chain of Protease (Q9YQ12 whole entry): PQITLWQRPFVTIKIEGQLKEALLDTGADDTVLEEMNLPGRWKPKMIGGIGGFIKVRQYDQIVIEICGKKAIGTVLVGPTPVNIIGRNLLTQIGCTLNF
`O=C(N[C@H]1c2ccccc2C[C@H]1O)[C@H](Cc1ccccc1)CC(O)C[C@@H](Cc1ccccc1)C(=O)N[C@H]1c2ccccc2C[C@H]1O` returned a concentration for half-maximal inhibition (IC50) of 0.0006 µM.

On to `CC(C)(C)NC(=O)[C@H]1CN(Cc2cccnc2)CCN1C[S+](=N)([O-])C[C@H](Cc1ccccc1)C(=O)N[C@@H]1c2ccccc2C[C@@H]1O` (stereo partly drawn), for which the IC50 was 100 µM.

In the case of `CC(C)(C)NC(=O)C1CN(Cc2cccnc2)CCN1C[S+]([O-])C[C@H](Cc1ccccc1)C(=O)NC1c2ccccc2CC1O` (single isomer, unassigned), the IC50 worked out at 100 µM.
